Laboratory results as given in US20260199274A1 (priority 2022, published 2026).

Legend:
[1] = tested on: Delta strain of SARS-CoV-2; format: cell-based
[2] = tested on: influenza B Yamagata (B/Paris/234/2013) virus; test: Plaque-Forming Units assay, BEAS-2B cells infected with IBV; format: cell-based; details: 3.4 mM for 16 h from 4 h post-infection
IL-6 production [3] = test: hIL-6 in IAV-infected human precision-cut lung slices (PCLS); format: cell-based; details: 3.4 mM CA 2 hpi, 48 hpi
[4] = 0.6 mg intranasally every second day for 15 days
viral polymerase = viral polymerase (Influenza A virus, UniProt P03427+P03430+P15659); format: cell-based
IL-6 production [5] = test: IL-6 ELISA in BEAS-2B cells stimulated with inflammatory agonists (PIC, PMA, TNFα); format: cell-based, human; details: increasing doses of CA 16 h
BEAS-2B cells = test: BEAS-2B tolerance: Ki67, mitotracker, DHR 123 and Live Dead staining; format: cell-based, human
Procedure: (FIG. 8a) Human bronchial epithelial BEAS-2B cells were treated with PBS or with 3.4 mM of cis-aconitate (CA), itaconate (Ita), oxaloacetate (Oxa), isocitrate (IsoC), citrate (Cit), fumarate (Fum), pyruvate (Pyr) or glucose (Glc) for 16 h and cytotoxicity was assessed by MTS assay. BEAS-2B cells were treated (CA+) or not (CA-) with 3.4 mM of CA for 6 or 24 h (FIG. 8b, 8c, 8d) or with 0, 1.2, 2.3 or 3.4 mM of CA for 20 h (FIG. 8e). Cell proliferation (FIG. 8b), mitochondrial labeling (FIG. 8c), ROS production (FIG. 8d) and cell viability (FIG. 8e) were analyzed by Ki67, mitotracker, DHR 123 and Live Dead staining respectively. (FIG. 8f) Human primary bronchial epithelial cells (PBEC) were treated with 0.6, 3.4 or 5.7 mM CA for 16 h and cytotoxicity was assessed by a MTS test. Data are represented as mean±/−SEM of 4 (FIG. 8b-f) or 5 (FIG. 8a) independent experiments. Statistical analysis was performed using the Kruskal-Wallis test with Dunn's multiple comparison test (FIGS. 8a, 8e and 8f) or Friedman test with Dunn's multiple comparison test (FIG. 8b-8d).
Cell proliferation and cytotoxicity assays. Cells in 96-well plates were washed twice with PBS and incubated for 1 h at 37° C. with 100 μL of MTS reagent diluted 1/5 for the cell proliferation test. Optical density was measured at 490 nm. For the cytotoxicity assay, cells were stained for 15 min at 4° C. with Live/Dead or with anti-Ki67, mitotracker and […] flow cytometry analysis.

IAV-triggered cell death = format: cell-based, human
IL-6 production [6] = test: IL-6 ELISA in PBEC (IAV, poly(I:C) or PMA); format: cell-based, human
[7] = tested on: ERK, AKT and NF-κB signaling pathways; test: Western blotting of phosphorylated ERK1/2, AKT and p65 in BEAS-2B cells; format: cell-based, human
[8] = tested on: Wuhan strain of SARS-CoV-2; test: IL-6 ELISA in Vero epithelial cells infected with SARS-CoV-2 Wuhan strain; format: cell-based; details: MOI=1, 1 mg/ml cis-aconitate for 16 hours from 4 h post-infection
IL-6 production [9] = test: hIL-6 ELISA in supernatants of IAV-infected BEAS-2B cells; format: cell-based, human
[10] = tested on: NF-kB activity / TNFα secretion; test: Murine model of acute lung injury induced by lipopolysaccharide; format: in vivo, mice; details: 10 μg LPS
Procedure: NF-kB transgenic Balb/c (FIG. 11a, 11b) or C57Bl/6 (FIG. 11c) mice were instilled with 10 μg of lipopolysaccharides (LPS) and treated 15 minutes post-stimulation with 0.6 mg of cis-aconitate (CA) intranasally. 24 h post-instillation, mice were anesthetized. In the group of NF-kB transgenic Balb/c animals, luciferine was intranasally instilled (0.75 mg·kg^−1) and bioluminescence was measured using the IVIS imaging system (FIG. 11a, 11b). In the group of C57Bl/6 mice, BALs fluids were collected to determine TNFα levels (FIG. 11c).). Bioluminescence was then measured using the IVIS system. […] Statistical analysis was performed using the Mann-Whitney test.
Then, we further examined the anti-inflammatory effect of cis-aconitate administered intranasally in a valuable murine model of acute lung injury induced by lipopolysaccharide ([63]), a cell wall component characteristic of Gram-negative bacteria.

[11] = tested on: A/Puerto Rico/8/1934 H1N1 (PR8) virus; format: cell-based, influenza A virus
[12] = tested on: influenza A/pandemic/2009 H1N1 (H1N1p) strain; format: cell-based, influenza A virus
[13] = tested on: CCL2/MCP-1, CCL5/RANTES, CXCL1/GROa, CXCL10/IP-10, IL-6 and CXCL8/IL-8; test: Protein-array of immune mediators in supernatants of IAV-infected BEAS-2B cells; format: cell-based, human; details: 3.4 mM

With `O=C(O)/C=C(/CC(=O)O)C(=O)O` [cis-aconitate] the IL-6 production [1] was “significant reduction”, the “viral particles production (PFU)” value [2] was “at least one log decrease” and the “reduction in IL-6 production” value (IL-6 production [3]) was “twofold”. For the same compound, the adverse effects [4] was “no adverse effects”, the “overall fecal microbial composition (Aitchison distance)” value ([4]; day 0, 7, 14) was “no differences” and the “luciferase activity versus concentration” value (viral polymerase) was “dose-dependent decrease”. For the same compound, the “reduction of luciferase activity (viral polymerase activity)” value (viral polymerase) was ~ 75%, the “IL-6 production, dose-dependent” value (IL-6 production [5]; BEAS-2B stimulated with 20 ng/ml TNFα) was “trend” and the “IL-6 production, dose-dependent” value (IL-6 production [5]; BEAS-2B stimulated with 50 nM PMA) was “significant decrease”. The “IL-6 production, dose-dependent” value (IL-6 production [5]; BEAS-2B stimulated with 2 μg/mL Poly (I:C)) was “significant decrease”, the “cell viability (Live Dead)” value (BEAS-2B cells; BEAS-2B, 0, 1.2, 2.3 or 3.4 mM, 20 h) was “did not impact” and the “ROS production (DHR 123)” value (BEAS-2B cells; BEAS-2B, 3.4 mM, 6 or 24 h) was “did not impact”. The “cell proliferation (Ki67)” value (BEAS-2B cells; BEAS-2B, 3.4 mM, 6 or 24 h) was “did not impact”, the “mitochondria accumulation (mitotracker)” value (BEAS-2B cells; BEAS-2B, 3.4 mM, 6 or 24 h) was “did not impact” and the “reduction in SYTOX labeling (dead cells)” value (IAV-triggered cell death) was “approximately 70%”. The “reduction of IAV-induced hIL-6 production” value (IL-6 production [6]) was “up to 80%”, the “pro-inflammatory cytokine (IL-6) expression induced by PMA” value (IL-6 production [6]; PBEC, PMA 4 h, then CA 20 h) was “dose-dependent decrease” and the “pro-inflammatory cytokine (IL-6) expression induced by PIC” value (IL-6 production [6]; PBEC, poly(I:C) 4 h, then CA 20 h) was “dose-dependent decrease”. The “ERK, AKT and NF-κB signaling pathways” value [7] was “reductions”, the “accumulation of phosphorylated ERK1/2, Akt and p65” value [7] was “inhibited” and the IL-6 production [8] was “significant reduction”. The “IL-6 production, dose-dependent” value (IL-6 production [9]; BEAS-2B stimulated with IAV MOI=1, increasing doses of CA 16 h) was “significant decrease”, the “IL-6 production of IAV-infected epithelial cells” value (IL-6 production [9]; BEAS-2B, IAV MOI=1, 3.4 mM for 16 h) was “reduced” and the “TNFα secretion in the BAL fluids” value ([10]; C57Bl/6 mice, 0.6 mg CA intranasally, 24 h) was “significantly decreased”. For the same compound, the “LPS-induced inflammation (NF-kB bioluminescence)” value ([10]; NF-kB transgenic Balb/c mice, 0.6 mg CA intranasally 15 minutes post-stimulation, 24 hours) was “markedly reduced”, the “viral particles production (PFU)” value [11] was “at least one log decrease” and the “viral particles production (PFU)” value [12] was “at least one log decrease”. The “IAV-induced expression of CCL2/MCP-1, CCL5/RANTES, CXCL1/GROa, CXCL10/IP-10, IL-6 and CXCL8/IL-8” value [13] was “inhibited”.
